According to the supplement of paper PMC13380429:

Tests used:
Details in all cases: 72 h
U2OS [1] = assay: relative viability EC50 (midpoint between 100% and the lowest measured viability); higher = less toxic
Caco-2 [2] = assay: as above
Vero E6 [3] = assay: as above
HepG2 [4] = assay: as above
Calu-3 [5] = assay: as above
U2OS [6] = assay: drug sensitivity score (DSS) for viability; higher = more toxic; extreme values may be limits of the assay
Caco-2 [7] = assay: as above
Vero E6 [8] = assay: as above
HepG2 [9] = assay: as above
Calu-3 [10] = assay: as above
U2OS [11] = assay: cell viability relative to DMSO; higher = less toxic
Caco-2 [12] = assay: as above
Vero E6 [13] = assay: as above
HepG2 [14] = assay: as above
Calu-3 [15] = assay: as above

Compound	relative viability EC50 (U2OS [1])	relative viability EC50 (Caco-2 [2])	relative viability EC50 (Vero E6 [3])	relative viability EC50 (HepG2 [4])	relative viability EC50 (Calu-3 [5])	drug sensitivity score (U2OS [6])	drug sensitivity score (Caco-2 [7])	drug sensitivity score (Vero E6 [8])	drug sensitivity score (HepG2 [9])	drug sensitivity score (Calu-3 [10])	cell viability (U2OS [11]; 1 nM)	cell viability (U2OS [11]; 10 nM)	cell viability (U2OS [11]; 100 nM)	cell viability (U2OS [11]; 1000 nM)	cell viability (U2OS [11]; 10000 nM)	cell viability (Caco-2 [12]; 1 nM)	cell viability (Caco-2 [12]; 10 nM)	cell viability (Caco-2 [12]; 100 nM)	cell viability (Caco-2 [12]; 1000 nM)	cell viability (Caco-2 [12]; 10000 nM)	cell viability (Vero E6 [13]; 1 nM)	cell viability (Vero E6 [13]; 10 nM)	cell viability (Vero E6 [13]; 100 nM)	cell viability (Vero E6 [13]; 1000 nM)	cell viability (Vero E6 [13]; 10000 nM)	cell viability (HepG2 [14]; 1 nM)	cell viability (HepG2 [14]; 10 nM)	cell viability (HepG2 [14]; 100 nM)	cell viability (HepG2 [14]; 1000 nM)	cell viability (HepG2 [14]; 10000 nM)	cell viability (Calu-3 [15]; 1 nM)	cell viability (Calu-3 [15]; 10 nM)	cell viability (Calu-3 [15]; 100 nM)	cell viability (Calu-3 [15]; 1000 nM)	cell viability (Calu-3 [15]; 10000 nM)
CCCCC(=O)O[C@]1(C(=O)CO)CC[C@H]2[C@@H]3CCC4=CC(=O)CC[C@]4(C)[C@H]3[C@@H](O)C[C@@]21C [hydrocortisone-valerate]	> 10 µM	> 10 µM	> 10 µM	> 10 µM	> 10 µM	0	0	0	0	0	95.5%	97.1%	92.5%	100%	93.2%	103%	99%	88%	109%	99.3%	107%	105%	101%	98.5%	101%	103%	97%	101%	96.5%	103%	87.3%	97.1%	86.5%	95.9%	103%
CC(C)C(=O)c1c(C(C)C)nn2ccccc12 [ibudilast]	> 10 µM	> 10 µM	> 10 µM	> 10 µM	> 10 µM	0	0	0	0	0	94.6%	102%	97.4%	104%	104%	91.2%	89.9%	93.3%	102%	107%	96.8%	97.4%	98.9%	94.7%	103%	94.5%	101%	109%	88.8%	99.2%	95.7%	94.1%	93%	104%	107%
COCC(=O)Nc1c(I)c(C(=O)NCC(O)CO)c(I)c(C(=O)N(C)CC(O)CO)c1I (stereo not given) [iopromide]	> 10 µM	> 10 µM	> 10 µM	> 10 µM	> 10 µM	0	0	0	0	0	99%	101%	99.1%	100%	95.1%	93.6%	101%	93.7%	98.4%	102%	100%	104%	93.9%	94.9%	104%	98%	89.1%	89.1%	85.2%	95.6%	110%	104%	93.1%	94.9%	96.1%
CCOC(=O)C1=C(C)NC(C)=C(C(=O)OCC)C1c1ccccc1/C=C/C(=O)OC(C)(C)C [lacidipine]	> 10 µM	> 10 µM	> 10 µM	> 10 µM	> 10 µM	0	2.5	0	0	0	96.6%	95.2%	98.5%	92.1%	97.5%	97.4%	91%	90.2%	84.7%	79%	92%	99.4%	89.7%	99.6%	106%	96.2%	102%	96.8%	114%	91.9%	97%	89.8%	106%	93%	91%
N#C/C(=C1/SCC(c2ccccc2Cl)S1)n1ccnc1 (stereo not given) [lanoconazole]	> 10 µM	> 10 µM	> 10 µM	> 10 µM	> 10 µM	0	0	0	0.8	0	99.1%	99.9%	97.4%	96.8%	89.8%	96.6%	106%	99.7%	101%	102%	100%	99.1%	95.2%	92.5%	94.9%	93.3%	95.5%	99.9%	97.6%	81.6%	96.9%	103%	103%	108%	86.6%
CCC(=O)O[C@@](Cc1ccccc1)(c1ccccc1)[C@@H](C)CN(C)C [levopropoxyphene]	> 10 µM	> 10 µM	> 10 µM	> 10 µM	> 10 µM	0	0	0	0	0	104%	101%	101%	98.8%	100%	99.3%	103%	98.3%	100%	102%	100%	100%	96%	101%	95.4%	94.3%	97.1%	96.4%	94.7%	89.4%	104%	90.1%	94.7%	102%	104%
CCOC(=O)Nc1nc2ccccc2[nH]1 [lobendazole]	> 10 µM	> 10 µM	> 10 µM	> 10 µM	> 10 µM	0	0	0	0	0	97.1%	96.1%	98.2%	94.8%	99.7%	97.9%	91.6%	96.4%	109%	95.5%	96.9%	101%	87.6%	103%	103%	94.6%	113%	104%	111%	98.9%	100%	106%	102%	98.4%	95.9%
CC(C(=O)O)c1ccc(CC2CCCC2=O)cc1 (stereo not given) [loxoprofen]	> 10 µM	> 10 µM	> 10 µM	> 10 µM	> 10 µM	0	0	0	0	0	108%	92.7%	98.3%	94.8%	96.9%	98.6%	90%	97.1%	88.1%	96%	106%	97.4%	98.4%	92.8%	94.2%	92.1%	104%	97%	108%	94.3%	101%	110%	104%	108%	93.6%
O=C1CCC[C@@H]2[C@H]3C[C@@H](CN12)[C@@H]1CCCCN1C3 [lupanine]	> 10 µM	> 10 µM	> 10 µM	> 10 µM	> 10 µM	0	1.8	0	0	0	101%	96.2%	98.6%	94%	100%	103%	92.8%	90.4%	87.2%	91.4%	92.1%	97.9%	93.8%	98.1%	95.7%	99.4%	95.7%	93%	110%	93.7%	87.2%	96.8%	99.5%	95.5%	94.4%
N=C(N)NC(=N)Nc1cccc(Cl)c1 [m-chlorophenylbiguanide]	> 10 µM	> 10 µM	> 10 µM	> 10 µM	> 10 µM	0	0	0	0	0	94.3%	98.9%	103%	95.9%	101%	101%	92.2%	100%	101%	97.1%	100%	101%	95.9%	101%	96.9%	112%	106%	102%	105%	99.2%	108%	94.7%	106%	98%	116%
O=C(O)C[C@H](O)C(=O)O [malic-acid]	> 10 µM	> 10 µM	> 10 µM	> 10 µM	> 10 µM	0	0	0	0	0	105%	101%	103%	97.6%	101%	93%	91.8%	99%	91%	99.8%	98.1%	107%	96.5%	100%	95.5%	101%	95%	94.6%	95.2%	95%	102%	108%	92.3%	95.2%	95.2%
CC(=O)O[C@]1(C(C)=O)CC[C@H]2[C@@H]3C[C@H](C)C4=CC(=O)CC[C@]4(C)[C@H]3CC[C@@]21C [medroxyprogesterone-acetate]	> 10 µM	> 10 µM	> 10 µM	> 10 µM	> 10 µM	0	0	0	0	0	97.1%	99%	97%	96.2%	96.5%	92.6%	103%	94.5%	101%	95.8%	96.6%	97.9%	100%	98.3%	98.2%	110%	103%	99.1%	95.1%	97.3%	99.8%	106%	95.6%	101%	103%
